Measurements reported in ChEMBL document CHEMBL5338724, “METTL3 from Target Validation to the First Small-Molecule Inhibitors: A Medicinal Chemistry Journey” (J Med Chem, 2023).

Columns and labels:
[1] = tested on: MOLM-13; experiment: Antiproliferative activity against human MOLM-13 cells assessed as cell growth inhibition; assay type: functional
[2] = tested on: THP-1; experiment: Antiproliferative activity against human THP-1 cells assessed as cell growth inhibition; assay type: functional
[3] = tested on: MOLM-14; experiment: Antiproliferative activity against human MOLM-14 cells assessed as cell growth inhibition; assay type: functional
[4] = tested on: HL-60; experiment: Antiproliferative activity against human HL-60 cells assessed as cell growth inhibition; assay type: functional
[5] = tested on: MOLM-13; experiment: Antiproliferative activity against human MOLM-13 cells assessed as decrease cell proliferation; assay type: functional, cell-based
[6] = target: T1, METTL3/METTL14 (Homo sapiens, UniProt Q86U44)
[7] = target: T1, METTL3/METTL14; experiment: Inhibition of METTL3/METTL14 (unknown origin); assay type: protein-complex assay
[8] = target: N6-adenosine-methyltransferase catalytic subunit (Homo sapiens, UniProt Q86U44); experiment: Inhibition of METTL3 in human MOLM-13 cells assessed as decrease in cellular m6A mRNA level incubated for 24 hrs by NanoDrop spectrophotometer based LC-MS/MS analysis; assay type: cell-based
[9] = tested on: MOLM-13; experiment: Antiproliferative activity against human MOLM-13 cells assessed as inhibition of cell proliferation incubated for 48 hrs by Cell Titer-Glo reagent assay; assay type: functional, cell-based; settings: MOLM-13, 48 h
[10] = tested on: MOLM-13; experiment: Antiproliferative activity against human MOLM-13 cells assessed as inhibition of cell proliferation incubated for 96 hrs by Cell Titer-Glo reagent assay; assay type: functional, cell-based; settings: MOLM-13, 96 h
[11] = target: T1, METTL3/METTL14; experiment: Inhibition of METTL3/METTL14 (unknown origin) using biotinylated RNA (UCUGGACUAAA-biotin) and 3H-SAM as substrate preincubated for 5 mins followed by substrate addition and measured after 30 mins by scintillation counter analysis; assay type: protein-complex assay
[12] = target: T1, METTL3/METTL14; experiment: Inhibition of METTL3/METTL14 (unknown origin) by bioluminescence assay; assay type: protein-complex assay
[13] = target: Histone-lysine N-methyltransferase 2B (Homo sapiens) (UniProt Q9UMN6); experiment: Inhibition of MLL4 (unknown origin) at 10 uM relative to control
[14] = target: Histone-lysine N-methyltransferase PRDM9 (Homo sapiens) (UniProt Q9NQV7); experiment: Inhibition of PRDM9 (unknown origin) at 10 uM relative to control
[15] = target: METTL3/METTL14 (Homo sapiens) (UniProt Q86U44+Q9HCE5); experiment: Inhibition of METTL3/METTL14 (unknown origin) at 60 uM relative to control; assay type: protein-complex assay
[16] = target: T1, METTL3/METTL14; experiment: Inhibition of METTL3/METTL14 (unknown origin) using RNA 5'-GGACUGGACUGGACU-3' as substrate incubated for 2 hrs by LC-MS/MS analysis; assay type: protein-complex assay
[17] = tested on: MIA PaCa-2; experiment: cells; settings: Homo sapiens, MIA PaCa-2, 72 h
[18] = tested on: Huh-7; experiment: cells; settings: Homo sapiens, Huh-7, 72 h
[19] = target: T1, METTL3/METTL14; experiment: Competive inhibition of full length human METTL3/METTL14 expressed in Sf9 cells using single strand RNA 5'-AAGAACCGGACUAAGCU-3' and SAM as substrate incubated for 40 mins by HTRF assay
[20] = tested on: Caov-3 cell line; experiment: Antiproliferative activity against human Caov-3 cell line assessed as inhibition of cell proliferation incubated for 120 hrs by CellTiter-Glo assay; assay type: functional, cell-based; settings: Caov-3, 120 h
[21] = tested on: Kasumi 1; experiment: Antiproliferative activity against human Kasumi 1 cells assessed as inhibition of cell proliferation incubated for 120 hrs by CellTiter-Glo assay; assay type: functional, cell-based; settings: Kasumi 1, 120 h
[22] = tested on: MOLM-13; experiment: Antiproliferative activity against human MOLM-13 cells assessed as inhibition of cell proliferation and measured after 7 days by CellTiter-Glo assay; assay type: functional, cell-based; settings: MOLM-13, 168 h
[23] = tested on: NOMO-1; experiment: cells; settings: Homo sapiens, NOMO-1, 168 h
[24] = tested on: EOL1; experiment: cells; settings: Homo sapiens, EOL1, 168 h
[25] = tested on: OCI-AML2; experiment: cells; settings: Homo sapiens, OCI-AML2, 168 h
[26] = tested on: OCI-AML-3; experiment: cells; settings: Homo sapiens, OCI-AML-3, 168 h
[27] = tested on: HL-60; experiment: cells; settings: Homo sapiens, HL-60, 168 h
[28] = tested on: Kasumi 1; experiment: cells; settings: Homo sapiens, Kasumi 1, 168 h
[29] = Selectivity ratio of IC50 for inhibition of METTL3/METTL14 (unknown origin) to IC50 for inhibition of PRMT5/MEP50 (unknown origin)
[30] = Selectivity ratio of IC50 for inhibition of METTL3/METTL14 (unknown origin) to IC50 for inhibition of FLT3 (unknown origin)
[31] = target: T1, METTL3/METTL14; experiment: Inhibition of full-length His-tagged METTL3/full length FLAG-tagged METTL14 (unknown origin) expressed in baculovirus expression system using synthetic RNA 5'P-uacacucgaucuggacuaaagcugcuc-3' and SAM as substrate preincubated for 10 mins followed by substrate addition and measured after 60 mins by RF/MS analysis

For `O=C(O)c1ccccc1OCCc1cn(-c2ccc(-c3c(Cl)cccc3Cl)cc2)c2ccc(-c3ccc(F)cc3)cc12`, the GI50 [1] was 14600 nM, the GI50 [2] was 21600 nM and the GI50 [3] was 13100 nM. For the same molecule, the GI50 [4] was 15500 nM, the EC50 [5] was 14600 nM and the IC50 [6] was 4920 nM.

Molecule `O=C(O)c1ccccc1OCCc1cn(C(c2ccccc2)c2ccccc2)c2ccc(-c3ccc(F)cc3)cc12` has an IC50 [7] of 6000 nM.

With `Cn1ccc(-c2cn([C@@H]3O[C@H](COc4ccc5ccc(N6CCC6)nc5c4)[C@@H](O)[C@@H]3F)c3ncnc(N)c23)n1` the IC50 [8] was < 1000 nM, the IC50 [9] was < 10000 nM and the IC50 [10] was < 10000 nM. For the same molecule, the IC50 [11] was < 10 nM.

In the case of `Nc1ncnc2c1c(-n1cccn1)cn2[C@@H]1O[C@H](COc2ccc3ccc(N4CCC4)nc3c2)[C@@H](O)[C@@H]1F`, the IC50 [9] is reported as < 10000 nM, the IC50 [10] is reported as < 10000 nM and the IC50 [11] is reported as < 10 nM.

Work on `CC1=NN(c2ccc(C)c(C)c2)C(=O)/C1=N\Nc1cccc(-c2cccc(C(=O)O)c2)c1O` [ELTROMBOPAG] yielded an IC50 [12] of 3650 nM, an inhibition [13] of 29% and an inhibition [14] of 30%.

`CC1=NN(c2ccc(C)c(C)c2)C(=O)/C1=N\Nc1cccc(-c2ccccc2)c1O` gave an inhibition [15] of 23.3%.

Work on `O=c1c(O)c(-c2ccc(O)c(O)c2)oc2cc(O)cc(O)c12` [QUERCETIN] yielded an IC50 [16] of 2730 nM, an IC50 [17] of 73500 nM and an IC50 [18] of 100000 nM.

With `Nc1ncnc2c1ncn2[C@@H]1O[C@H](C(=O)NCC2CCNCC2)[C@@H](O)[C@H]1O` (single isomer, unassigned) the IC50 [19] was > 250000 nM.

For `Nc1ncnc2c1ncn2C[C@H]1OC[C@@H](O)[C@@H](O)[C@H]1O`, the IC50 [19] was > 250000 nM.

For `Nc1ncnc2c1c(Cl)cn2[C@@H]1C[C@H](c2ccc3cc(CNCC45CC(F)(C4)C5)[nH]c3c2)[C@@H](O)[C@H]1O`, the IC50 [20] was 250 nM and the IC50 [21] was 950 nM.

Work on `O=C(O)c1ccccc1OCCc1cn(C(c2ccccc2)c2ccccc2)c2ccc(Cl)cc12` yielded an IC50 [7] of 13000 nM.

For `COc1cc(-c2cn(Cc3cn4cc(CNCC56CC(F)(C5)C6)ccc4n3)nn2)c2cncn2c1`, the IC50 [20] was 305 nM and the IC50 [21] was 1150 nM.

Molecule `O=C(NCc1cn2cc(CNCC3CCCCC3)ccc2n1)c1cc(=O)n2ccccc2n1` has an IC50 [22] of 1040 nM, an IC50 [23] of 600 nM and an IC50 [24] of 1940 nM. For the same molecule, the IC50 [25] was 1780 nM, the IC50 [26] was 3200 nM and the IC50 [27] was 10300 nM. It also gave an IC50 [28] of 700 nM.

For `Nc1ncnc2c1c(-n1cccn1)cn2[C@H]1C[C@H](O)[C@@H](COc2ccc3ccc(N4CCC4)nc3c2)O1`, the IC50 [8] was < 1000 nM, the IC50 [9] was < 10000 nM and the IC50 [10] was < 10000 nM. For the same molecule, the IC50 [11] was < 10 nM.

Molecule `COc1cc(-c2cn(Cc3cn4cc(CNCC56CC(C5)C6)ccc4n3)nn2)c2cncn2c1` has an IC50 [20] of 110 nM and an IC50 [21] of 419 nM.

With `Cn1ccc(-c2cn([C@@H]3O[C@H](C(=O)Nc4ccc5ccc(N6CCC6)nc5c4)[C@@H](O)[C@@H]3F)c3ncnc(N)c23)n1` the Ratio IC50 [29] was > 100, the Ratio IC50 [30] was > 100 and the IC50 [11] was < 10 nM.

`Cc1c(CCOc2ccc(C(=O)O)cc2)c2cc(Cl)ccc2n1C(c1ccccc1)c1ccccc1` gave an IC50 [7] of 17300 nM.

Molecule `COc1cc(-c2cn(Cc3cn4cc(CNCC5CCC5)ccc4n3)nn2)c2cncn2c1` has an IC50 [20] of 103 nM and an IC50 [21] of 316 nM.

With `Nc1ncnc2c1c(Br)cn2[C@@H]1C[C@H](c2ccc3cc(CNCC45CC(F)(C4)C5)[nH]c3c2)[C@@H](O)[C@H]1O` the IC50 [31] was < 6 nM, the IC50 [20] was 250 nM and the IC50 [21] was 950 nM.

With `Cn1ccc(-c2cn([C@@H]3O[C@H](COc4ccc5ccc(NC6CCC6)nc5c4)[C@@H](O)[C@@H]3F)c3ncnc(N)c23)n1` the IC50 [8] was < 1000 nM, the IC50 [9] was < 10000 nM and the IC50 [10] was < 10000 nM. For the same molecule, the IC50 [11] was < 10 nM.

For `CNc1ccc2ccc(OCc3cncc(-n4cc([C@@H]5CCCO5)c5c(N)ncnc54)c3)cc2n1`, the IC50 [8] was < 1000 nM, the IC50 [10] was < 10000 nM and the IC50 [11] was < 10 nM.
